2 molecules from paper PMC6218659, “Structures of DPAGT1 Explain Glycosylation Disease Mechanisms and Advance TB Antibiotic Design” (Cell, 2018) can be followed below.

For data set [1], the target named is T1, DPAGT1 (Homo sapiens, UniProt Q9H3H5).
T1 construct: H. sapiens DPAGT1 (1-408, N-terminal 6 x HIS tag, TEV cleavage site); 6xHis purification tag with TEV site (N, cleaved yes); made in house; host or cells: Spodoptera frugiperda Sf9 insect cells (baculovirus)
T1 sequence (Q9H3H5 1-408): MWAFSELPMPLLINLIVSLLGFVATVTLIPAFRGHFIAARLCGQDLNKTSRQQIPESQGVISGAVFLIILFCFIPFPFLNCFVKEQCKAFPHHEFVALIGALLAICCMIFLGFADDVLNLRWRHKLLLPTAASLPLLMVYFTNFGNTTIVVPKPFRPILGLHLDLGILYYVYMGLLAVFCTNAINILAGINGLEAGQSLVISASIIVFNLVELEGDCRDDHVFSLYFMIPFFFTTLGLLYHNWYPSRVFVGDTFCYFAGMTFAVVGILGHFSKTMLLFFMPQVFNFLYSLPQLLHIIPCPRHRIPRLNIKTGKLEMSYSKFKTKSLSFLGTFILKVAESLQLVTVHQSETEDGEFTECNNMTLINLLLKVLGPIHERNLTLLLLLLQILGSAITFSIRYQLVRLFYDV
Kind of data set: Radiolabeled substrate enzyme activity assay. In kind it is biochemical, H. sapiens. As to conditions: purified DPAGT1 enzyme, Figure 6F. The procedure: 2 μl of 2 μM DPAGT1 WT or mutant proteins in GFB buffer supplemented with 5mM extra MgCl2, 1% OGNG/CHS/cardiolipin and dolichyl monophosphate was combined with 2 μl of UDP-N-acetyl [1-14C] […] The reaction was terminated by the addition of 6 μl of 100% methanol and immediately transferred onto ice. 1 μl of sample was spotted onto a silica coated TLC plate in triplicate and run with a mobile phase consisting of chloroform, methanol, and water at a 65:25:4 ratio respectively. After the run, the TLC plate was dried thoroughly, wrapped in cling film, incubated with a phosphor imaging substrate for 4 days, then phosphor imaged using a Biorad. The pixel density of the spots corresponding to the hydrophobic product was divided by combined pixel density of the product and the substrate and multiplied by the known concentration of substrate added to ascertain the amount of product formed.

Data set [2] concerns B. subtilis EC1524. In words: Micro-broth dilution and drop plate antimicrobial susceptibility test. In kind it is cell-based, Bacillus subtilis. The procedure:
(§1) In a sterile 96-well plate, serial dilutions were made with the test substance to final volume of 50 μl. Inoculum was then prepared in Mueller-Hinton broth to 0.5 McFarland and diluted before adding 50 μl to the well to make ∼1x10^5 CFU/ml. The culture plate was incubated at 35 °C for 20-24 hrs. A positive growth control and sterility wells were also prepared along with the culture wells. Absorbance at OD600 was taken using BMG Labtech SPECTROstar Omega spectrophotometer. MIC is determined by the lowest concentration without growth. IC50 is determined from plotting a dose-response curve, see Data Analysis below. To determine the MBC, using a multi-channel pipette, 1 μl of culture broth was taken from the same 96-well microdilution growth plate and carefully inoculated on surface of MH agar plate. The plate is then incubated for additional 20 hrs. at 35 °C. The MBC value is the lowest concentration without observed growth on the agar.
(Dilution methods test growth across graded concentrations, often in twofold steps.)

For data set [3], the system named is B. cereus ATCC11778. The data set is described as above. In kind it is cell-based, Bacillus cereus. The procedure: as §1
In data set [4] the test system is E. coli ATCC25922. The data set is described as above. It counts as cell-based. The note with it: Escherichia coli. The protocol: as §1
In data set [5] the test system is P. aeruginosa ATCC27853. Described as above. In kind it is cell-based. As to conditions: Pseudomonas aeruginosa. The procedure: as §1
In data set [6] the test system is S. aureus ATCC29219. The data set is described as above. In kind it is cell-based. As to conditions: Staphylococcus aureus. The procedure:
as §1

Data set [7] relates to Mtb H37Rv ATCC27294. Kind of data set: Minimum inhibitory concentrations testing against Mtb. In kind it is cell-based, Mycobacterium tuberculosis. The note with it: for MIC: Mycobacterium tuberculosis, 168 h.
For data set [8], the system named is HEK293 cells. Kind of data set: Cell proliferation assay (MTS). In kind it is cell-based, human. The procedure:
(§2) In sterile 96-well plate, each well was seeded with ∼1x10^5 cells. The cells are then grown confluent overnight in 100 μl DMEM with 10% FBS. The medium is replenished with DMEM with 2% FBS and added vehicle control or test substance the next day. For test substance in methanol, stock was added to 25 μl of DMEM with 2% FBS or PBS and placed in the laminar flow hood to let the methanol evaporate (about 1-3 hrs). Once the methanol has evaporated, DMEM with 2% FBS was added to final volume of 100 μl of desired test concentration. […] Cells are grown for additional 24 hrs. The cell viability was determined by using Promega CellTiter 96^© AQueous One Solution Cell Proliferation Assay (3-(4,5-dimethylthiazol-2-yl)-5-(3-carboxymethoxyphenyl)-2-(4-sulfophenyl)-2H-tetrazolium, inner salt; MTS) System following the manufacture protocol.

Data set [9] concerns HepG2 cells. In words: Cell proliferation assay (MTS). It counts as cell-based, human. The protocol: as §2
The subject of data set [10] is Raji cells. Kind of data set: Cell proliferation assay (MTS). In kind it is cell-based, human. The note with it: 24 hrs. The procedure:
as §2

The subject of data set [11] is Mtb-infected J774A.1 macrophages. Kind of data set: Efficacy against Mtb growing in infected macrophages. As to conditions: J774A.1 macrophages treated 3 or 7 days.
The mark [12] stands for this setting: minimal lethal dose / MIC, 800 μg mL-1 used for >400.
[13] abbreviates: MTS cell proliferation assay, 24 hrs, highest concentration 400 µg mL-1.
Where [14] appears, read: serial 2-fold dilutions (Table S6).

In brackets after ≈: the same amount, converted by molar mass. Read-outs that look alike come from different tables or passages of the source.

Broadly, the IC50 is the concentration that gives 50% inhibition. Low values mean inhibition by little substance, high ones a need for much substance. In general, MBC refers to the lowest tested concentration that kills the bacteria rather than only halting them.

Regarding `CCCCCCCC(=O)N[C@H]1[C@H](O[C@H]2O[C@H](CO)[C@@H](O)[C@H](O)[C@H]2NC(C)=O)O[C@H](C[C@@H](O)[C@H]2O[C@@H](n3ccc(=O)[nH]c3=O)[C@H](O)[C@@H]2O)[C@H](O)[C@@H]1O` [TUN-8,Ac, N-Octanoyl-N’-acetyl tunicamycin], the “effect on DPAGT1 catalytic activity” value in [1] is reported as “restored inhibitory activity”.
As for `CCCCCCCCCC(=O)N[C@H]1[C@H](O[C@H]2O[C@H](CO)[C@@H](O)[C@H](O)[C@H]2NC(=O)CCCCCCCCC)O[C@H](C[C@@H](O)[C@H]2O[C@@H](n3ccc(=O)[nH]c3=O)[C@H](O)[C@@H]2O)[C@H](O)[C@@H]1O` [TUN-10,10, Di-N-decanoyl-tunicamycin], the IC50 turned out to be 0.12 ± 0.04 µg/mL (≈ 0.137 µM) in data set [2] (Bacillus subtilis, EC1524); 0.046 µg/mL (≈ 0.0526 µM) in data set [3] (Bacillus cereus, ATCC11778); 91.6 µg/mL (≈ 105 µM) in [4]; 53.5 µg/mL (≈ 61.1 µM) in data set [5]; 49.3 µg/mL (≈ 56.3 µM) in [6]. In addition, the minimal bactericidal concentration (MBC) in data set [2] (Bacillus subtilis, EC1524) was above 0.39 µg/mL; in data set [3] (Bacillus cereus, ATCC11778) it was 12.5 µg/mL (≈ 14.3 µM); in [4], 400 µg/mL (≈ 457 µM); in data set [5], 400 µg/mL (≈ 457 µM); in data set [6] it was 400 µg/mL (≈ 457 µM). Also, the MIC in data set [2] (Bacillus subtilis, EC1524) was 0.33 ± 0.11 µg/mL (≈ 0.377 µM); in data set [2] (Bacillus subtilis, EC1524, read-out: Minimal Inhibitory Concentration, B. subtilis EC1524), 0.39 µg/mL (≈ 0.446 µM); in data set [3] (B. cereus, micro-broth dilution, mean ± SEM (n=3)) it was 0.33 ± 0.11 µg/mL (≈ 0.377 µM); in [3] (Bacillus cereus, ATCC11778), 0.33 ± 0.11 µg/mL (≈ 0.377 µM); in [3] (Bacillus cereus, ATCC 11778 / NRRL11778, read-out: Minimal Inhibitory Concentration, B. cereus NRRL 11778), 0.39 µg/mL (≈ 0.446 µM); in [4], 330 ± 120 µg/mL (≈ 377 µM). Further, the MIC in data set [5] was 83 ± 29 µg/mL (≈ 94.9 µM); in data set [6], 83 ± 29 µg/mL (≈ 94.9 µM); in data set [7] (read-out: 1-week MIC in 7H9/ADC/Tw) it was 1.2 ± 0.3 µg/mL (≈ 1.37 µM); in data set [7] (read-out: 1-week MIC in GAST/Fe), 0.1 ± 0.1 µg/mL (≈ 0.114 µM); in [7] (read-out: Minimal Inhibitory Concentration, Mtb H37RV a), 1.2 µg/mL (≈ 1.37 µM); in data set [7] (read-out: Minimal Inhibitory Concentration, Mtb H37RV b), 0.1 µg/mL (≈ 0.114 µM). For the same molecule, the “Relative Therapeutic Index (RTI), B. subtilis EC1524” value in data set [2] (setting [12]) is listed as 2050. The “Relative Therapeutic Index (RTI), B. cereus NRRL 11778” value in data set [3] (setting [12]) worked out at 2050. In addition, the “Relative Therapeutic Index (RTI), Mtb H37RV a” value in [7] (minimal lethal dose / MIC, 7H9/ADC/Tw, 800 μg mL-1 used for >400) was determined as 667. In addition, the “Relative Therapeutic Index (RTI), Mtb H37RV b” value in [7] (minimal lethal dose / MIC, GAST/Fe, 800 μg mL-1 used for >400) is given as 8000. The “LD50 values, HEK293” value in [8] (setting [13]) is “N/A (N/A = not available. No or low cytotoxicity observed at highest, saturating concentration tested (400 µg mL-1))”. For the same molecule, the “Minimal Lethal Dose, HEK 293” value in [8] (setting [14]) was above 400 µg/mL. The “LD50 values, HepG2” value in [9] (setting [13]) is reported as “N/A (N/A = not available. No or low cytotoxicity observed at highest, saturating concentration tested (400 µg mL-1))”. For the same molecule, the “Minimal Lethal Dose, HepG2” value in [9] (setting [14]) was above 400 µg/mL. Moreover, the “LD50 values, Raji” value in data set [10] was 196.17 ± 47.61 µg/mL. Further, the figures for the “reduction of intracellular bacterial burdens” value in [11] (1 × MIC) and in [11] (10 × MIC) were 1 logs and 2 logs, respectively.
